By EC50 is commonly meant the concentration at which the effect is half-maximal. Read a low EC50 as greater potency.

The structures appear in SMILES notation.

The target of this assay is T1, human apelin receptor (Homo sapiens, UniProt P35414).
T1 construct: host or cells: CHO cells
T1 sequence (P35414 1-380): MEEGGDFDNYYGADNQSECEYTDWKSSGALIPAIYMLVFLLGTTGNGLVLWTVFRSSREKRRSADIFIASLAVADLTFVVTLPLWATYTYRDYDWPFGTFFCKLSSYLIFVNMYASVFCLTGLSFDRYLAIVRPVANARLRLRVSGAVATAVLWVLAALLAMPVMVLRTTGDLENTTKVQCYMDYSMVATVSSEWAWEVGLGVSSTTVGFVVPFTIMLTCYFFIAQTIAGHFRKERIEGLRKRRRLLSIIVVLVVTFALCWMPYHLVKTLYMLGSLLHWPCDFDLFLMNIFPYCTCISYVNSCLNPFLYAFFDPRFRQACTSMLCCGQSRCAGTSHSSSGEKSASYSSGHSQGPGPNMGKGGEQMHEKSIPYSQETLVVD
The assay can be described thus: Measurement of apelin receptor agonist activity (cell-based assay determining the amount of intracellular cAMP). To be noted: CHO cells stably expressing the human apelin receptor, Forskolin 10 μM, 30 minutes, 100% efficacy = [Pyr1]-apelin-13 0.300 μM, concentration giving 50% efficacy. On the procedure: Measurement of Apelin Receptor Agonist Activity
The apelin receptor agonist activity of the compound represented by formula (I) or (II) of the present invention was measured by cell-based assay for determining the amount of intracellular cAMP.
CHO cells (DiscoveRx Corp.) stably expressing the human apelin receptor were inoculated to wells of a microtiter plate and cultured overnight at 37° C. under conditions of 5% CO2.
Each test compound and Forskolin were added to the wells at the same time. Specifically, the test compound dissolved in DMSO was diluted with a Forskolin-containing buffer [DMEM/F-12, HEPES, no phenol red (#11039, GIBCO)] to prepare a mixed solution containing the test compound at a final concentration of […] (common ratio: 3, serial dilution: 11), Forskolin at a final concentration of 10 μM, and DMSO at a final concentration of 0.3% v/v, which was then added to the wells (N═4).
After 30 minutes, the cells were lysed, and HitHunter cAMP XS+ Assay #90-0075L (DiscoveRx Corp.) was added to the cell lysate. The mixture was left overnight, and the resulting chemiluminescence signals were then detected using Analyst GT (Molecular Devices LLC.) to determine the amount of cAMP.
The amount of cAMP determined by the addition of a positive control [Pyr1]-apelin-13 (final concentration: 0.300 μM) and Forskolin (final concentration: 10 μM) at the same time was used as an index to define 100% efficacy. The amount of cAMP determined by the addition of Forskolin (final concentration: 10 μM) alone was used as an index to define 0% efficacy.
A dose response curve was prepared from the final concentration of the test compound and the determined amount of cAMP using Sigmaplot 12.0.
`COC(=O)[C@@H]1C[C@@H](O)CN1C(=O)/C=C/c1nnc(-c2ccc(C)o2)n1-c1c(OC)cccc1OC` [Example 91, Methyl (4R)-1-{(2E)-3-[4-(2,6-dimethoxyphenyl)-5-(5-methylfuran-2-yl)-4H-1,2,4-triazol-3-yl]prop-2-enoyl}-4-hydroxy-L-prolinate]: a half-maximal response (EC50) required 351 nM.
For `COc1cccc(OC)c1-n1c(SCP(=O)(O)O)nnc1-c1ccc(C)o1` [Example 102, ({[4-(2,6-Dimethoxyphenyl)-5-(5-methylfuran-2-yl)-4H-1,2,4-triazol-3-yl]sulfanyl}methyl)phosphonic acid] the value was 103 nM; for `COc1cccc(OC)c1-n1c(SCc2n[nH]c(=O)[nH]2)nnc1-c1ccc(C)o1` [Example 100, 5-({[4-(2,6-Dimethoxyphenyl)-5-(5-methylfuran-2-yl)-4H-1,2,4-triazol-3-yl]sulfanyl}methyl)-2,4-dihydro-3H-1,2,4-triazol-3-one], 957 nM.
`COc1cccc(OC)c1-n1c(/C=C/C(=O)N2C[C@H](O)C[C@H]2C(=O)O)nnc1-c1ccc(C)o1` [Example 92, (4R)-1-{(2E)-3-[4-(2,6-Dimethoxyphenyl)-5-(5-methylfuran-2-yl)-4H-1,2,4-triazol-3-yl]prop-2-enoyl}-4-hydroxy-L-proline] showed an EC50 of 166 nM.
As for `COc1cccc(OC)c1-n1c(SCC(=O)O)nnc1-c1cccs1` [Example 30, {[4-(2,6-Dimethoxyphenyl)-5-(thiophen-2-yl)-4H-1,2,4-triazol-3-yl]sulfanyl}acetic acid], a half-maximal response (EC50) required 332 nM.
For `COc1cccc(OC)c1-n1c(SCc2cc(=O)n3cc(C)ccc3n2)nnc1-c1ccc(C)o1` [Example 2, 2-({[4-(2,6-Dimethoxyphenyl)-5-(5-methylfuran-2-yl)-4H-1,2,4-triazol-3-yl]sulfanyl}methyl)-7-methyl-4H-pyrido[1,2-a]pyrimidin-4-one] the value was 1 nM.
For `COc1cccc(OC)c1-n1c(SC(C)C(=O)O)nnc1-c1ccc(C)o1` (centres unmarked) [Example 41, 2-{[4-(2,6-Dimethoxyphenyl)-5-(5-methylfuran-2-yl)-4H-1,2,4-triazol-3-yl]sulfanyl}propanoic acid] the value was 45 nM; for `COc1cccc(OC)c1-n1c(SCC(=O)O)nnc1-c1cc(C)c(C)o1` [Example 63, {[4-(2,6-Dimethoxyphenyl)-5-(4,5-dimethylfuran-2-yl)-4H-1,2,4-triazol-3-yl]sulfanyl}acetic acid], 716 nM; for `COc1cccc(OC)c1-n1c(SCC(=O)O)cnc1-c1ccc(C)o1` [Example 60, {[1-(2,6-Dimethoxyphenyl)-2-(5-methylfuran-2-yl)-1H-imidazol-5-yl]sulfanyl}acetic acid], 1300 nM.
For `COc1cccc(OC)c1-n1c(SCc2ccc(C(=O)O)cc2)nnc1-c1ccc(C)o1` [Example 82, 4-({[4-(2,6-Dimethoxyphenyl)-5-(5-methylfuran-2-yl)-4H-1,2,4-triazol-3-yl]sulfanyl}methyl)benzoic acid] the value was 5460 nM; for `COc1cccc(OC)c1-n1c(SCc2cc(=O)n(C)c(=O)n2C)nnc1-c1ccc(C)o1` [Example 15, 6-({[4-(2,6-Dimethoxyphenyl)-5-(5-methylfuran-2-yl)-4H-1,2,4-triazol-3-yl]sulfanyl}methyl)-1,3-dimethylpyrimidine-2,4(1H,3H)-dione], 164 nM.
The compound `COc1cccc(OC)c1-n1c(SCCCCCC(=O)O)nnc1-c1ccc(C)o1` [Example 50, 6-{[4-(2,6-Dimethoxyphenyl)-5-(5-methylfuran-2-yl)-4H-1,2,4-triazol-3-yl]sulfanyl}hexanoic acid] had a concentration giving a half-maximal response (EC50) of 1320 nM.
Regarding `COc1cccc(OC)c1-n1c(CCC(C)=O)nnc1-c1ccc(C)o1` [Example 24, 4-[4-(2,6-Dimethoxyphenyl)-5-(5-methylfuran-2-yl)-4H-1,2,4-triazol-3-yl]butan-2-one], the EC50 was determined as 751 nM.
In turn, `COc1cccc(OC)c1-n1c(SCC(=O)O)nnc1-c1ccc(Br)o1` [Example 26, {[5-(5-Bromofuran-2-yl)-4-(2,6-dimethoxyphenyl)-4H-1,2,4-triazol-3-yl]sulfanyl}acetic acid] gave a concentration giving a half-maximal response (EC50) of 57 nM.
For `COC(=O)[C@@H]1CCCN1C(=O)/C=C/c1nnc(-c2ccc(C)o2)n1-c1c(OC)cccc1OC` [Example 90, Methyl 1-{(2E)-3-[4-(2,6-dimethoxyphenyl)-5-(5-methylfuran-2-yl)-4H-1,2,4-triazol-3-yl]prop-2-enoyl}-L-prolinate] the value was 503 nM; for `COC(=O)c1ccccc1CSc1nnc(-c2ccc(C)o2)n1-c1c(OC)cccc1OC` [Example 77, Methyl 2-({[4-(2,6-dimethoxyphenyl)-5-(5-methylfuran-2-yl)-4H-1,2,4-triazol-3-yl]sulfanyl}methyl)benzoate], 557 nM.
The compound `COc1cccc(OC)c1-n1c(/C=C/C#N)nnc1-c1ccc(C)o1` [Example 53, (2E)-3-[4-(2,6-Dimethoxyphenyl)-5-(5-methylfuran-2-yl)-4H-1,2,4-triazol-3-yl]prop-2-enenitrile] showed an EC50 of 2650 nM.
For `COc1cccc(OC)c1-n1c(SCC(N)=O)nnc1-c1ccc(C)o1` [Example 83, 2-{[4-(2,6-Dimethoxyphenyl)-5-(5-methylfuran-2-yl)-4H-1,2,4-triazol-3-yl]sulfanyl}acetamide] the value was 219 nM; for `COc1cccc(OC)c1-n1c(Br)nnc1-c1ccc(C)o1` [Example 44, 3-Bromo-4-(2,6-dimethoxyphenyl)-5-(5-methylfuran-2-yl)-4H-1,2,4-triazole], 1210 nM.
For `CCc1nnc(-c2ccc(C)o2)n1-c1c(OC)cccc1OC` [Example 17, 4-(2,6-Dimethoxyphenyl)-3-ethyl-5-(5-methylfuran-2-yl)-4H-1,2,4-triazole] the value was 1410 nM.
Compound `COc1cccc(OC)c1-n1c(-c2ccc(C)o2)nnc1S(C)(=O)=O` [Example 86, 4-(2,6-Dimethoxyphenyl)-3-(5-methylfuran-2-yl)-5-(methylsulfonyl)-4H-1,2,4-triazole] returned a concentration for a half-maximal effect (EC50) of 2020 nM.
For `COc1cccc(OC)c1-n1c(/C=C/C(=O)N2CCC[C@H]2C(=O)O)nnc1-c1ccc(C)o1` [Example 93, 1-{(2E)-3-[4-(2,6-Dimethoxyphenyl)-5-(5-methylfuran-2-yl)-4H-1,2,4-triazol-3-yl]prop-2-enoyl}-L-proline] the value was 364 nM; for `COc1cccc(OC)c1-n1c(CSc2nnc[nH]2)nnc1-c1ccc(C)o1` [Example 68, 4-(2,6-Dimethoxyphenyl)-3-(5-methylfuran-2-yl)-5-[(4H-1,2,4-triazol-3-ylsulfanyl)methyl]-4H-1,2,4-triazole], 1330 nM; for `COc1cccc(OC)c1-n1c(SC(C(=O)O)c2ccccc2)nnc1-c1ccc(C)o1` (centres unmarked) [Example 35, {[4-(2,6-Dimethoxyphenyl)-5-(5-methylfuran-2-yl)-4H-1,2,4-triazol-3-yl]sulfanyl}(phenyl)acetic acid], 10 nM.
The compound `COc1cccc(OC)c1-n1cnnc1-c1ccc(C)o1` [Example 6, 4-(2,6-Dimethoxyphenyl)-3-(5-methylfuran-2-yl)-4H-1,2,4-triazole] had an EC50 of 703 nM.
Compound `COc1cccc(OC)c1-n1c(SCc2cc(=O)n3nccc3[nH]2)nnc1-c1ccc(C)o1` [Example 16, 5-({[4-(2,6-Dimethoxyphenyl)-5-(5-methylfuran-2-yl)-4H-1,2,4-triazol-3-yl]sulfanyl}methyl)pyrazolo[1,5-a]pyrimidin-7(4H)-one] came in with an EC50 of 314 nM.
For `COc1cccc(OC)c1-n1c(SCc2cc(=O)n3cc(Cl)ccc3n2)nnc1-c1ccc(C)o1` [Example 3, 7-Chloro-2-({[4-(2,6-dimethoxyphenyl)-5-(5-methylfuran-2-yl)-4H-1,2,4-triazol-3-yl]sulfanyl}methyl)-4H-pyrido[1,2-a]pyrimidin-4-one] the value was 2 nM; for `COc1cccc(OC)c1-n1c(S)nnc1-c1cccs1` [Example 10, 4-(2,6-Dimethoxyphenyl)-5-(thiophen-2-yl)-4H-1,2,4-triazole-3-thiol], 192 nM; for `CCOC(=O)CSc1nnc(-c2ccc(C)o2)n1-c1c(OC)cccc1OC` [Example 4, Ethyl {[4-(2,6-dimethoxyphenyl)-5-(5-methylfuran-2-yl)-4H-1,2,4-triazol-3-yl]sulfanyl}acetate], 122 nM.

(Values after US11155525B2 (Sanford Burnham Prebys Medical Discovery Institute, priority 2015, dated 2021).)
